Experimental findings from patent EP0291164A2, “Growth-suppressing infusion medium, growth-suppressing cell culture medium and processes for the suppression of transformed cell growth” (SPECTRAL BIOANALYSIS LTD., priority 1987, dated 1988) are described below.

The structures appear in SMILES notation.

In one assay the test system is CCL-2. As to the kind of experiment: Cell growth by Lowry protein determination after 80 hours in zinc-supplemented culture medium. Particulars: CCL-2, about 1.6 mg/l to about 4.0 mg/l of Zn⁺⁺. Type of assay: cell-based, human. The source says:
(§1) In the example, malignant transformed human cell lines obtained from the American Type Culture Collection, i.e., a human epithelial cervix carcinoma cell line, HeLa (ATCC No. CCL-2), a human adenocarcinoma carcinoma cell line of the colon, HT-29 (ATCC No. HTB-38) and a human adenocarcinoma carcinoma cell line of the breast, SK-BR-3 (ATCC No. HTB-30) were used. Non-transformed dipolid human fibroblast cells (MRC-5, ATCC No. CCL-171) were employed as a control. The cell lines were obtained from the American Type Culture Collection in a frozen condition. In order to reactivate the cells, the cells were subcultured in McCoy 5A (mod.) medium (Serva Company) containing 15% (v/v) fetal calf serum.
(§2) The reactivated cells were allowed to reach the logarithmic growth phase and then detrypsinized and harvested. The harvested cells were washed twice with McCoy 5A (mod.) medium containing 15% (v/v) fetal calf serum and then resuspended in the same medium at a concentration of 10⁶ cells per ml. The correct cell concentration was determined using a Neubeuer-Turk count chamber in which the viability of the cells was also determined by means of Trypan blue coloring (see: Freshney, I.R., Culture of Animal Cells, Alan Riss Publ. Co., New York, N.Y. (1983)).
(§3) To tubes containing 200,000 HTB-30 cells or 200,000 HTB-38 cells or 200,000 CCL-2 cells was added Cell Culture Medium Nos. 1, 2, 3, 4, 5, 6, 7, 8 or 9 described below and the cells were incubated for 80 hours. In addition, to tubes containing 200,000 human fibroblast cells (MRC-5) were added Cell Culture Medium Nos. 1, 2, 3, 4, 5, 6, 7, 8 or 9 described below and the cells were incubated for 80 hours. All of the cells were incubated at 36.5°C (± 0.5°C), 5% CO₂ and 95% air. Five duplicate tubes were employed for each cell culture medium for each cell.
(§4) After the end of the incubation time, the culture medium was removed and the cells were washed three times with Dulbecco buffer solution (see: Dulbecco, R.U., Vogt, M., J. Exp. Med. 98:167-182 (1954)). Next, the cells were dried and octyl phenol polyethylene glycol ether was added at a concentration of 0.2% (v/v) to each tube to which 20 µl of 1.0 N NaOH had been additionally added per ml.
(§5) After thorough mixing and allowing the samples to stand for 30 minutes at 20-25°C, 200 µl each of the resulting cell extracts were used for protein determinations according to the Lowry method (see: Lowry, O.H. et al., J. Biol. Chem. 193:265 (1951)).
(§6) The Control in the Table below refers to Cell Culture Medium No. 1 at 4°C to which no cells had been added. […] All growth values are mean values from the five duplicate tubes ± the standard deviation.
(§7) The growth value as a percent of the Control was determined according to the following formula: [formula]
(§8) In addition, in the Table, the mean adsorption values are determinative of the concentration of protein in the cells and were evaluated at 660 nm.

The next assay relates to HTB-30. Described as above. The class given is cell-based, human. Particulars: HTB-30, about 1.6 mg/l to about 4.0 mg/l of Zn⁺⁺.
Text: as §1, §2, §3, §4, §5, §6, §7, §8

For a further assay, the system named is HTB-38. The description is as above. Type of assay: cell-based, human. Particulars: for decrease in protein yield: compared to Cell Culture Medium No. 1, 4800 min.
Text: as §1, §2, §3, §4, §5, §6, §7, §8

For another assay, the system named is Human Fibroblasts. The assay can be described thus: Cell growth by Lowry protein determination after 80 hours in zinc-supplemented culture medium (non-transformed control cells). Particulars: about 1.6 mg/l to about 4.0 mg/l of Zn⁺⁺. Type of assay: cell-based.
Text: as §1
The reactivated cells were allowed to reach the logarithmic growth phase and then detrypsinized and harvested. […] The correct cell concentration was determined using a Neubeuer-Turk count chamber in which the viability of the cells was also determined by means of Trypan blue coloring (see: Freshney, I.R., Culture of Animal Cells, Alan Riss Publ. Co., New York, N.Y. (1983)). […]
as §7, §8

As to `[Cl-].[Cl-].[Zn+2]` [bivalent zinc, ZnCl₂], the “growth rate, expressed as protein concentration” value is listed as “inhibited” in the assay with CCL-2; “inhibited” with HTB-30; “inhibited” in the assay with HTB-38 (HTB-38, about 1.6 mg/l to about 4.0 mg/l of Zn⁺⁺); “not inhibited” with Human Fibroblasts. The “decrease in protein yield” value is 41.8% in the assay with HTB-38 (HTB-38, 3.5 mg/l of Zn⁺⁺ (maximum growth suppression)) and 24.8% in the assay with HTB-38 (HTB-38, about 2.1 mg/l of Zn⁺⁺).
